Patent US6509464B1, “FKBP inhibitors” (Pfizer Inc, priority 1999, dated 2003)

What was measured:
Format in all cases: biochemical
[1] = target: T1, human recombinant FKBP-12 (Homo sapiens, UniProt P62942); assay: coupled PPIase (rotamase) assay, Ki,app determination vs. FKBP-12; conditions: tested vs. FKBP-12 and/or FKBP-52; FKBP-12 method; succinyl-AFPF-pNA, 10° C., pH 8.0
Text: (§1) The affinity of the compounds of the formula (I) for FKBP-12 can be determined in vitro in a coupled calorimetric PPlase assay using similar procedures to published methods (e.g. see Kofron, J. L., et al., Biochemistry, 1991, 30, 6127-6134, Zarnt, T., et al., Biochem. J. 1995, 305, 159-164, Holt, D. A., et al., J. Am. Chem. Soc., 1993, 115, 9925-9938). In these methods, the cis-trans isomerisation of a hydrophobic amino acid-proline bond in a tetrapeptide substrate (e.g. the phenylalanine-proline bond in N-succinyl-ala-phe-pro-phe-p-nitroanilide [succinyl-AFPF-pNA]) can be determined by monitoring cleavage of pNA from the transPro-containing peptide by an excess of chymotrypsin.
(§2) Assay buffer (2.175 ml) (50 mM HEPES, 100 mM NaCl, 1 mM DTT, pH 8.0) is equilibrated to 10° C. in a cuvette. 12.5 μl of a solution of the present compound in DMSO, 250 μl of a 60 mg/ml solution of α-chymotrypsin in 1 mM aqueous hydrochloric acid and then 50 μL of a solution of human recombinant FKBP-12 (1.5 μM) in assay buffer are added and mixed. The reaction is initiated by adding 12.5 μl of a solution of anhydrous succinyl-AFPF-pNA (100 μM final concentration) in a 400 mM solution of LiCl in trifluoroethanol. The absorbance at 390 nm is monitored for 3 minutes collecting data every 0.5 second. Data are fitted with a first order rate equation with offset and the initial velocity (v) is calculated from the concentration of cis (re leu-pro bond)-succinyl-AFPF-pNA at to and the first order rate constant at different inhibitor concentrations (I). Data in the form vinh/vcontrol v. [I] are fitted with an equation for reversible tight binding inhibition to generate values for Kiapp (see Morrison, J. F., et al, Comments Mol. Cell Biophys., 1985, 2, 347-368). This analysis is used when the Ki,app approaches the concentration of FKBP-12 in the assay (30 nM).

[2] = target: T1, human recombinant FKBP-12; assay: coupled PPIase (rotamase) assay, IC50 determination vs. FKBP-12; conditions: tested vs. FKBP-12 and/or FKBP-52; succinyl-AFPF-pNA substrate, chymotrypsin-coupled, 10° C., pH 8.0
Text: as §1
The IC50 (the concentration of the compound of the formula (I) producing 50% inhibition) values were determined using the following assay methodology. Assay buffer (2.175 ml) (50 mM 4-(2-hydroxyethyl)-1-piperazineethanesulphonic acid (HEPES), 100 mM NaCl, 1 mM dithiothreitol (DTT), pH 8.0) is equilibrated to 10° C. in a cuvette. 12.5 μl of a solution of the present compound in DMSO, 250 μl of a 60 mg/ml solution of α-chymotrypsin in 1 mM aqueous hydrochloric acid and then 50 μl of a solution of human recombinant FKBP-12 (4.5 μM) in assay buffer are added and mixed. The reaction is initiated by addition of 12.5 μl of a solution of 20 mM succinyl-AFPF-pNA in DMSO. The absorbance at 390 nm is monitored for one minute collecting data every 0.25 second. Data are fitted with a first order rate equation with offset and the rate constant obtained corrected for the rate of uncatalysed isomerisation of the substrate. The rate constant determined at different inhibitor concentrations (10 nM to 100 μM) is expressed as % inhibition of the control rate constant. The IC50 is estimated using a nonlinear least squares curve fitting routine of the sigmoidal dose response data.

[3] = target: T2, human recombinant FKBP-52 (Homo sapiens, UniProt Q02790); assay: coupled PPIase (rotamase) assay, Ki,app determination vs. FKBP-52; conditions: tested vs. FKBP-12 and/or FKBP-52; FKBP-52 method; succinyl-AFPF-pNA, 10° C., pH 8.0
T2 sequence (Q02790 1-459): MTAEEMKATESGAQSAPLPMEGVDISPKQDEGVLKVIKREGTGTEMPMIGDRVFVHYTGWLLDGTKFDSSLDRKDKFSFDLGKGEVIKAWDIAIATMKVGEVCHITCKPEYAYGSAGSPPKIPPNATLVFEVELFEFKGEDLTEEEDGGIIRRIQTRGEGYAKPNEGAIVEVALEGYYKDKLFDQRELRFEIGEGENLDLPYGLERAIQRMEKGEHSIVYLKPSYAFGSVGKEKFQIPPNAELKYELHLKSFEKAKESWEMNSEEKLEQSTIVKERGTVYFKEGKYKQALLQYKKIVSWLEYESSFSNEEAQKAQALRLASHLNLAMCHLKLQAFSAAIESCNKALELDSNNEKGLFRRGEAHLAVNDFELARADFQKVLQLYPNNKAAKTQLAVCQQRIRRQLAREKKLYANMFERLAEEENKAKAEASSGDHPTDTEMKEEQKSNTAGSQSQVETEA
Method: as §2
The same methodology is used to measure Ki,app for FKBP-52, with the following modifications: 40 μl human recombinant FKBP-52 (5.2 μM) is substituted for FKBP-12 and 2.185 ml assay buffer are used in the assay.

T1 sequence (P62942 whole entry): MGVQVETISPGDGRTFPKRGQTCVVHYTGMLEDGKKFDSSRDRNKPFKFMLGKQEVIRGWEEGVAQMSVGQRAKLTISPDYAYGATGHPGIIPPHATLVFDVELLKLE

COc1ccc2[nH]c(N3CCCC[C@H]3C(=O)NCCN3[C@H](C)CCC[C@@H]3C)nc2c1 [Example 18]
< 1000 nM: Ki [1] | IC50 [2] | Ki [3]

Cc1cccc2[nH]c(N3CCCC[C@H]3C(=O)NCCN3[C@H](C)CCC[C@@H]3C)nc12 [Example 27]
< 1000 nM: Ki [1] | IC50 [2] | Ki [3]

C[C@@H]1CCC[C@H](C)N1CCNC(=O)[C@@H]1CCCCN1c1nc2ccccc2o1 [Example 3, (2S)-1-(1,3-Benzoxazol-2-yl)-N^2-2-[(cis)-2,6-dimethyl-1-piperidinyl]ethyl-2-piperidinecarboxamide]
< 1000 nM: Ki [1] | IC50 [2] | Ki [3]

C[C@@H]1CCC[C@H](C)N1CCNC(=O)[C@@H]1CCCCN1c1nc2ccc(F)cc2[nH]1 [Example 19]
< 1000 nM: Ki [1] | IC50 [2] | Ki [3]

CC(C)NC(=O)N1C[C@@H](C)N(CCNC(=O)[C@@H]2CCCCN2c2nc3ccccc3o2)[C@@H](C)C1 [Example 11, (cis)-4-[2-([(2S)-1-(1,3-Benzoxazol-2-yl)-2-piperidinyl]carbonylamino)ethyl]-N^1-isopropyl-3,5-dimethyl-1-piperazinecarboxamide]
< 1000 nM: Ki [1] | IC50 [2] | Ki [3]

Cc1cc2nc(N3CCCC[C@H]3C(=O)NCCN3[C@H](C)CCC[C@@H]3C)oc2cc1C [Example 31, (2S)-N^2-2-[(cis)-2,6-Dimethyl-1-piperidinyl]ethyl-1-[5,6-dimethyl-1,3-benzoxazol-2-yl]-2-piperidinecarboxamide]
< 1000 nM: Ki [1] | IC50 [2] | Ki [3]

C[C@@H]1CCC[C@H](C)N1CCNC(=O)[C@@H]1CCCCN1c1nc2ccccc2[nH]1 [Example 17]
< 1000 nM: Ki [1] | IC50 [2] | Ki [3]

CC1COCC(C)N1CCNC(=O)[C@@H]1CCCCN1c1nc2ccccc2o1 (stereo partly drawn) [Example 12, (2S)-1-(1,3-Benzoxazol-2-yl)-N^2-[2-(3,5-dimethylmorpholino)ethyl]-2-piperidinecarboxamide]
< 1000 nM: Ki [1] | IC50 [2] | Ki [3]
